Tests used:
Assay in all cases: relative viability (nuclei count vs DMSO), 5 days (fraction); higher = more cells survive
NCI-H2126 = tested on: NCI-H2126
In short: (§1)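 Each reported value is a median over duplicate plates. It expresses relative viability: treated-well nuclei count divided by vehicle-well nuclei count. Lung cancer cell lines in 1536-well plates were dosed by pin tool a day after seeding, alone with one drug or with a fixed anchor-drug dose plus five library-drug doses (not always all listed) in √10 steps, and nuclei were counted after 5 days.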

NCI-H441 = tested on: NCI-H441
In short: as §1

NCI-H2347 = tested on: NCI-H2347
In short: as §1

NCI-H596 = tested on: NCI-H596
In short: as §1

NCI-H838 = tested on: NCI-H838
In short: as §1

NCI-H1993 = tested on: NCI-H1993
In short: as §1

NCI-H3122 = tested on: NCI-H3122
In short: as §1

NCI-H650 = tested on: NCI-H650
In short: as §1

EMC-BAC-2 = tested on: EMC-BAC-2
In short: as §1

201T = tested on: 201T
In short: as §1

BEN = tested on: BEN
In short: as §1

NCI-H647 = tested on: NCI-H647
In short: as §1

LOU-NH91 = tested on: LOU-NH91
In short: as §1

HCC-44 = tested on: HCC-44
In short: as §1

NCI-H2087 = tested on: NCI-H2087
In short: as §1

NCI-H727 = tested on: NCI-H727
In short: as §1

HARA = tested on: HARA
In short: as §1

NCI-H23 = tested on: NCI-H23
In short: as §1

LCLC-103H = tested on: LCLC-103H
In short: as §1

NCI-H522 = tested on: NCI-H522
In short: as §1

NCI-H2023 = tested on: NCI-H2023
In short: as §1

NCI-H1395 = tested on: NCI-H1395
In short: as §1

O=c1cc(N2CCOCC2)oc2c(-c3cccc4c3sc3ccccc34)cccc12 + Nc1ncn([C@H]2C[C@H](O)[C@@H](CO)O2)c(=O)n1 [Decitabine] (partner 2 µM)
relative viability (NCI-H2126; first compound 0.01 µM): 0.558 | relative viability (NCI-H2126; first compound 0.03162 µM): 0.609 | relative viability (NCI-H2126; first compound 0.1 µM): 0.601 | relative viability (NCI-H2126; first compound 0.3162 µM): 0.559 | relative viability (NCI-H2126; first compound 1 µM): 0.569 | relative viability (NCI-H441; first compound 0.01 µM): 0.279 | relative viability (NCI-H441; first compound 0.03162 µM): 0.255 | relative viability (NCI-H441; first compound 0.1 µM): 0.26 | relative viability (NCI-H441; first compound 0.3162 µM): 0.208 | relative viability (NCI-H441; first compound 1 µM): 0.228 | relative viability (NCI-H2347; first compound 0.01 µM): 0.606 | relative viability (NCI-H2347; first compound 0.03162 µM): 0.632 | relative viability (NCI-H2347; first compound 0.1 µM): 0.609 | relative viability (NCI-H2347; first compound 0.3162 µM): 0.641 | relative viability (NCI-H2347; first compound 1 µM): 0.603 | relative viability (NCI-H596; first compound 0.01 µM): 0.974 | relative viability (NCI-H596; first compound 0.03162 µM): 1.07 | relative viability (NCI-H596; first compound 0.1 µM): 1.09 | relative viability (NCI-H596; first compound 0.3162 µM): 1.03 | relative viability (NCI-H596; first compound 1 µM): 1.05 | relative viability (NCI-H838; first compound 0.01 µM): 0.481 | relative viability (NCI-H838; first compound 0.03162 µM): 0.49 | relative viability (NCI-H838; first compound 0.1 µM): 0.479 | relative viability (NCI-H838; first compound 0.3162 µM): 0.482 | relative viability (NCI-H838; first compound 1 µM): 0.478 | relative viability (NCI-H1993; first compound 0.01 µM): 0.731 | relative viability (NCI-H1993; first compound 0.03162 µM): 0.639 | relative viability (NCI-H1993; first compound 0.1 µM): 0.569 | relative viability (NCI-H1993; first compound 0.3162 µM): 0.575 | relative viability (NCI-H1993; first compound 1 µM): 0.585 | relative viability (NCI-H3122; first compound 0.01 µM): 0.405 | relative viability (NCI-H3122; first compound 0.03162 µM): 0.436 | relative viability (NCI-H3122; first compound 0.1 µM): 0.564 | relative viability (NCI-H3122; first compound 0.3162 µM): 0.452 | relative viability (NCI-H3122; first compound 1 µM): 0.388 | relative viability (NCI-H650; first compound 0.01 µM): 0.319 | relative viability (NCI-H650; first compound 0.03162 µM): 0.384 | relative viability (NCI-H650; first compound 0.3162 µM): 0.338 | relative viability (NCI-H650; first compound 1 µM): 0.303 | relative viability (EMC-BAC-2; first compound 0.01 µM): 1.05 | relative viability (EMC-BAC-2; first compound 0.03162 µM): 1.02 | relative viability (EMC-BAC-2; first compound 0.1 µM): 1.01 | relative viability (EMC-BAC-2; first compound 0.3162 µM): 0.93 | relative viability (EMC-BAC-2; first compound 1 µM): 0.95 | relative viability (201T; first compound 0.01 µM): 0.843 | relative viability (201T; first compound 0.03162 µM): 0.863 | relative viability (201T; first compound 0.1 µM): 0.83 | relative viability (201T; first compound 0.3162 µM): 0.86 | relative viability (201T; first compound 1 µM): 0.818 | relative viability (BEN; first compound 0.01 µM): 0.73 | relative viability (BEN; first compound 0.03162 µM): 0.748 | relative viability (BEN; first compound 0.1 µM): 0.589 | relative viability (BEN; first compound 0.3162 µM): 0.76 | relative viability (BEN; first compound 1 µM): 0.664 | relative viability (NCI-H647; first compound 0.01 µM): 0.318 | relative viability (NCI-H647; first compound 0.03162 µM): 0.356 | relative viability (NCI-H647; first compound 0.1 µM): 0.382 | relative viability (NCI-H647; first compound 0.3162 µM): 0.419 | relative viability (NCI-H647; first compound 1 µM): 0.371 | relative viability (LOU-NH91; first compound 0.01 µM): 0.774 | relative viability (LOU-NH91; first compound 0.03162 µM): 0.794 | relative viability (LOU-NH91; first compound 0.1 µM): 0.83 | relative viability (LOU-NH91; first compound 0.3162 µM): 0.827 | relative viability (LOU-NH91; first compound 1 µM): 0.784 | relative viability (HCC-44; first compound 0.01 µM): 0.962 | relative viability (HCC-44; first compound 0.03162 µM): 0.993 | relative viability (HCC-44; first compound 0.1 µM): 0.97 | relative viability (HCC-44; first compound 0.3162 µM): 0.96 | relative viability (HCC-44; first compound 1 µM): 0.986 | relative viability (NCI-H2087; first compound 0.01 µM): 0.261 | relative viability (NCI-H2087; first compound 0.03162 µM): 0.257 | relative viability (NCI-H2087; first compound 0.1 µM): 0.336 | relative viability (NCI-H2087; first compound 0.3162 µM): 0.306 | relative viability (NCI-H2087; first compound 1 µM): 0.297 | relative viability (NCI-H727; first compound 0.01 µM): 0.749 | relative viability (NCI-H727; first compound 0.03162 µM): 0.914 | relative viability (NCI-H727; first compound 0.1 µM): 0.796 | relative viability (NCI-H727; first compound 0.3162 µM): 0.954 | relative viability (NCI-H727; first compound 1 µM): 0.773 | relative viability (HARA; first compound 0.01 µM): 0.536 | relative viability (HARA; first compound 0.03162 µM): 0.466 | relative viability (HARA; first compound 0.1 µM): 0.617 | relative viability (HARA; first compound 0.3162 µM): 0.481 | relative viability (HARA; first compound 1 µM): 0.476 | relative viability (NCI-H23; first compound 0.01 µM): 0.288 | relative viability (NCI-H23; first compound 0.03162 µM): 0.322 | relative viability (NCI-H23; first compound 0.3162 µM): 0.326 | relative viability (NCI-H23; first compound 1 µM): 0.307 | relative viability (LCLC-103H; first compound 0.01 µM): 0.807 | relative viability (LCLC-103H; first compound 0.03162 µM): 0.763 | relative viability (LCLC-103H; first compound 0.1 µM): 0.766 | relative viability (LCLC-103H; first compound 0.3162 µM): 0.77 | relative viability (LCLC-103H; first compound 1 µM): 0.686 | relative viability (NCI-H522; first compound 0.01 µM): 0.709 | relative viability (NCI-H522; first compound 0.03162 µM): 0.662 | relative viability (NCI-H522; first compound 0.1 µM): 0.669 | relative viability (NCI-H522; first compound 0.3162 µM): 0.649 | relative viability (NCI-H522; first compound 1 µM): 0.696 | relative viability (NCI-H2023; first compound 0.01 µM): 0.252 | relative viability (NCI-H2023; first compound 0.03162 µM): 0.224 | relative viability (NCI-H2023; first compound 0.1 µM): 0.248 | relative viability (NCI-H2023; first compound 0.3162 µM): 0.251 | relative viability (NCI-H2023; first compound 1 µM): 0.232 | relative viability (NCI-H1395; first compound 0.03162 µM): 0.772 | relative viability (NCI-H1395; first compound 0.1 µM): 0.656 | relative viability (NCI-H1395; first compound 0.3162 µM): 0.701 | relative viability (NCI-H1395; first compound 1 µM): 0.692

— the supplement of paper PMC10307832
